The values below come from US20160151285A1, “METHOD TO PRODUCE SLOW RELEASE DELIVERY CARRIER LIPID NANOPARTICLES OF DIFFERENT LOG P VALUE” (University of Malaya, priority 2014, published 2016).

Broadly, the Log P is a log measure of how a compound divides between an organic and an aqueous phase.

Data set [1] in a line: In vitro release study, Automated Franz Diffusion Cell System, Higuchi model fit. In kind it is physicochemical. As to conditions: 37° C., PBS pH7.4, 24 hours, regenerated cellulose membrane. As for the experimental part:
Four different samples were run in 6 diffusate chamber volume of 4 ml […] PBS solution at pH7.4, with 0.6362 cm^2 effective diffusion area, under 400 rpm stirring and circulation of water bath at 37±1° C. throughout the experiments. Approximately 500 mg of each sample was loaded on the regenerated cellulose membrane surface (5000 Da molecular weight cut-off) in the retentate compartment, which was pre-soaked overnight, to be evaluated for 24 hours. At predetermined intervals, samples were withdrawn to be determined spectrophotometrically for the drug content and replaced with fresh receiving medium. The calculations are done based on average of six measurements from six different retentate compartments.

For data set [2] the following is noted: log P of the compound used / encapsulated; cited from earlier work.

Turning to `CN(C)c1ccc2cc3ccc(N(C)C)cc3nc2c1` [Acridine orange, acridine orange], the “Slope (release rate, Higuchi Model)” value is 0.43 in data set [1] (In NLC (NLC-1, NLC-2, NLC-3)); 4.12 in data set [1] (In cream (C1, C2, C3)); 19.15 in data set [1] (In solution (A1, A2, A3)).
For the compound `O=S(=O)(O)c1cc2cc(S(=O)(=O)O)c(N=Nc3ccccc3[As](=O)(O)O)c(O)c2c(O)c1N=Nc1ccccc1[As](=O)(O)O` [Arsenazo III, arsenazo III], the “Slope (release rate, Higuchi Model)” value in data set [1] (In NLC (NLC-1, NLC-2, NLC-3)) came to 8.93; in data set [1] (In cream (C1, C2, C3)) it was 11.48; in data set [1] (In solution (A1, A2, A3)) it was 19.25. In data set [2], the “Log P” value is listed as 0.49.
